From PMC12382740, “In Vitro and In Vivo Characterization of Novel Cathelicidin-Based Peptides with Antimicrobial Activity Against Pseudomonas aeruginosa” (Antibiotics, 2025)
Values after ≈ are worked out from the molar mass of the structure shown. Read-outs that look alike come from different tables or passages of the source. Square brackets hold non-standard residues; d marks the D form. Ends that are not written are not given here. Peptide text beside a SMILES is read from it. * marks the point of attachment. Gu = N-terminal guanidylation, N=C(N)*

Tests used:
A549 cells = format: cell-based, human; details: 24 h
Protocol: (§1) Cell viability assays were performed against HeLa and A549 cells. Cells were seeded in Corning 96-well microplates at 2 × 10^3 cells/well and 5 × 10^3 cells/well and incubated for 24 h at 37 °C. Then, cells were treated with peptides dissolved in Dulbecco’s Modified Eagle’s Medium for 24 h; peptide concentration range 0.1–100 µM. The peptide solution was then removed, and fresh medium was added to the cells. Finally, 50 µL of activated-XTT solution was added and incubated for 4 h at 37 °C. A PowerWave X reader (BioTek, Winooski, VT, USA) was used to measure absorbance at 450 nm. Cell viability was calculated through the ratio of the absorbance of peptide-treated cells over the absorbance of untreated cells. Triplicates were run for each experiment.

HeLa cells [1] = format: cell-based, human; details: 24 h
Protocol: as §1

[2] = In vivo toxicity study, topical; parameters: species or system BALB/C mice; details: for mice final weight (median ± SD): after 7 days of observation after the treatment; for dermal responses and body weight loss / indicative signs of acute toxicity: healthy female BALB/C mice; for dermal responses and body weight loss: during the application; for indicative signs of acute toxicity: topical, efficacy dosage, 7 days observation
Protocol: Immunocompetent female BALB/C mice weighing 20 g (7–9 weeks old) were used (Charles River laboratories, St-Germain-Nuelles, France). Animals were murine pathogen-free and were assessed for genetic authenticity. The study followed the Guide for the Care and Use of Laboratory Animals. The experiments followed the 2010/63/EU directive on the protection of animals used for scientific research. Experiments were approved by the Committee on the Ethics of Animal Experiments of the Virgen del Rocío University Hospital and the Andalusian Ministry of Agricultura, Pesca, Agua y Desarrollo Rural, Junta de Andalucía, Sevilla, Spain (11-09-15-322).
CAP-18 and D-CAP-18 peptides were evaluated in five healthy female BALB/C mice at the dosage and regimen schedule to be used in the efficacy studies. The following indicative signs of acute toxicity were assessed during seven days: reduced water (dehydration)/food intake, isolation, self-mutilation, tremors/spasms, dyspnea, physical activity (increased/reduced), chromo-dacryorrhea, dermal responses, including erythema/oedema/redness/discoloration/necrosis), muscle stiffness, piloerection, teeth grinding, and weight loss.

human erythrocytes = test: Hemolysis assay; format: cell-based; details: red cells of human, 4 h
Protocol: Commercially available human blood (IWB1K2E10ML, Innovative Research Inc., Novi, MI, USA) was used to produce a 50% haematocrit solution by mixing at 1:1 with PBS 1× (P5493, 1 L, Sigma, St. Louis, MO, USA). Three consecutive PBS 1× washes plus centrifugation at 2600 rpm for 10 min steps were performed. Finally, a 2% erythrocyte solution was prepared in PBS 1× and chilled on ice until used. Polypropylene plates were filled with 50 µL PBS 1× per well for the samples and 50 µL 2% Triton X-100 (TX-100, 9002-93-1, 100 mL, Sigma, St. Louis, MO, USA) for the hemolysis controls. A solution at 4× final concentration of the assay of each peptide was prepared in PBS and 50 µL were added to the first column of each plate, followed by serial dilutions in the microplate. Then, 50 µL of the 2% erythrocyte solution was added to each plate. […] controls consisted in a 1:1 mix of PBS 1× and erythrocytes at 2%. Plates were incubated at 37 °C for 4 h and then centrifuged at 1500 rpm for 5 min. Eighty µL were extracted from the supernatant of each well carefully and transferred to a polystyrene flat bottom plate for reading and read at 450 nm in an Epoch microplate spectrophotometer (Epoch™, BioTek, Winooski, VT, USA).
The therapeutic index is a widely accepted parameter to represent the specificity of antimicrobial peptides for prokaryotic versus eukaryotic cells. It is calculated by the ratio of HC50 (hemolytic activity) and MIC (antimicrobial activity); thus, larger values of therapeutic index indicate greater specificity for prokaryotic cells.

[3] = tested on: P. aeruginosa Strain 121007; format: cell-based, Pseudomonas aeruginosa
Protocol: (§2) The antimicrobial activity of the peptides was tested against a collection of P. aeruginosa, selected by their resistance or susceptibility to colistin and/or classified as MDR strains. The origin of the strains was either clinical, relevant to the current clinical situation, or commercial strains belonging to the American Type Culture Collection (ATCC, Manassas, VA, USA), which complemented the collection for comparison and control. For the initial activity screening of the 17 peptides, we tested them against P. aeruginosa ATCC strains 1211007 and 1211101. Both strains are multidrug-resistant; however, the key difference is that strain 1211007 is susceptible to colistin, whereas strain 1211101 is resistant to colistin.
(§3) Minimum Inhibitory Concentration (MIC) of the antimicrobial agents against bacterial strains was obtained through broth microdilution assays following a protocol based on the Clinical & Laboratory Standards Institute’s guidelines. Modifications regarding microplate material and broth were included when testing the peptides’ activity and are detailed below. Colistin MICs were obtained following recommendations of the joint CLSI-EUCAST Polymyxin Breakpoints Working Group using Cation Adjusted Mueller-Hinton Broth (90922, 500 g Sigma-Aldrich®, St. Louis, MO, USA), and strains Escherichia coli 13846 (mcr-1 positive) and P. aeruginosa ATCC 27853 were used as quality controls in all assays. Bacteria were cultured in Columbia Agar plates (Columbia Agar with 5% Sheep Blood 90 mm Stacker plates, Becton Dickinson, Franklin Lakes, NJ, USA) and incubated overnight at 37 °C. Polypropylene round-bottomed 96-well plates (-96-well Polypropylene Storage Microplates, 267334, Thermo Fischer Scientific, Waltham, MA, USA) were used to prevent peptide binding to plate walls. AST broth (BD Phoenix™ AST broth, 8 mL, 246003, Becton Dickinson, Franklin Lakes, NJ, USA) was used when testing the peptides’ activity. […] Three biological and technical replicates were performed per strain.

[4] = tested on: P. aeruginosa strain panel; format: cell-based, Pseudomonas aeruginosa; details: strain panel
Protocol: as §2, §3

[5] = tested on: P. aeruginosa Strain ATCC 121110; format: cell-based, Pseudomonas aeruginosa
Protocol: as §2, §3

[6] = tested on: Colistin-Resistant P. aeruginosa; format: cell-based, Pseudomonas aeruginosa; details: Colistin-Resistant
Protocol: as §2, §3

[7] = tested on: Colistin Susceptible P. aeruginosa; format: cell-based, Pseudomonas aeruginosa; details: Colistin Susceptible
Protocol: as §2, §3

HeLa cells [8] = tested on: HeLa cells; parameters: method as in PMID 26114809; details: read-out: IC50 against HeLa cells; cited from earlier work
erythrocytes = tested on: erythrocytes; parameters: method as in PMID 26114809; details: at 64 mg/L ref 58; cited from earlier work
[9] = Strain 121007, value in brackets
[10] = Strain ATCC 121110, value in brackets

Compound	MIC ([3]; Strain 121007) [µg/mL]	MIC [3, 9] [µM]	MIC [5, 10] [µM]	MIC ([5]; ATCC 121110) [µg/mL]	IC50 (HeLa cells [8]) [µM]	other results
CC[C@@H](C)[C@@H](NC(=O)[C@@H](CCCCN)NC(=O)[C@@H](CCCCN)NC(=O)[C@@H](CC(C)C)NC(=O)[C@@H](CCCCN)NC(=O)[C@@H](CCC(=O)O)NC(=O)[C@@H](CCCCN)NC(=O)[C@H](NC(=O)[C@@H](CCCCN)NC(=O)[C@@H](CC(N)=O)NC(=O)[C@@H](CCCNC(=N)N)NC(=O)[C@@H](Cc1ccccc1)NC(=O)[C@@H](CCCCN)NC(=O)[C@@H](CCCNC(=N)N)NC(=O)[C@@H](CC(C)C)NC(=O)[C@@H](CCCNC(=N)N)NC(=O)[C@@H](CCCCN)NC(=O)[C@@H](CCCNC(=N)N)NC(=O)[C@@H](CC(C)C)NC(=O)CN)[C@H](C)CC)C(=O)NCC(=O)N[C@H](CCC(N)=O)C(=O)N[C@H](CCCCN)C(=O)N[C@@H](C(=O)N[C@H](CCC(N)=O)C(=O)NCC(=O)N[C@H](CC(C)C)C(=O)N[C@H](CC(C)C)C(=O)N1CCC[C@@H]1C(=O)N[C@H](CCCCN)C(=O)N[C@H](CC(C)C)C(=O)N[C@H](C)C(=O)N1CCC[C@@H]1C(=O)N[C@H](CCCNC(=N)N)C(=O)N[C@@H](C(=O)N[C@H](CC(=O)O)C(=O)N[C@H](Cc1ccc(O)cc1)C(=O)O)[C@H](C)O)[C@H](C)CC [D-CAP-18, Glrkrlrkfrnkikeklkkigqkiqgllpklaprtdy] (H-G[dL][dR][dK][dR][dL][dR][dK][dF][dR][dN][dK][dI][dK][dE][dK][dL][dK][dK][dI]G[dQ][dK][dI][dQ]G[dL][dL][dP][dK][dL][dA][dP][dR][dT][dD][dY]-OH)	2					IC50 (A549 cells): 2.09 µM; IC50 (HeLa cells [1]): 2.11 µM; mice final weight (median ± SD) [2]: 18.9 ± 0.30 grams; dermal responses and body weight loss [2]: no dermal responses, including erythema/oedema, nor body weight loss were observed; indicative signs of acute toxicity [2]: None of the 11 indicative signs of acute toxicity were observed; IC50 (human erythrocytes): 62 µM; MIC50 [4]: 1 µg/mL (≈ 0.226 µM); MIC90 [4]: 2 µg/mL (≈ 0.451 µM)
CC[C@@H](C)[C@@H](NC(=O)CNC(=O)[C@@H](CCC(N)=O)NC(=O)[C@@H](CCCCN)NC(=O)[C@H](NC(=O)[C@@H](CCC(N)=O)NC(=O)CNC(=O)[C@@H](CC(C)C)NC(=O)[C@@H](CC(C)C)NC(=O)[C@H]1CCCN1C(=O)[C@@H](CCCCN)NC(=O)[C@H](N)CC(C)C)[C@H](C)CC)C(=O)N[C@H](CCCCN)C(=O)N[C@H](CCCCN)C(=O)N[C@H](CC(C)C)C(=O)N[C@H](CCCCN)C(=O)N[C@H](CCC(=O)O)C(=O)N[C@H](CCCCN)C(=O)N[C@@H](C(=O)N[C@H](CCCCN)C(=O)N[C@H](CC(N)=O)C(=O)N[C@H](CCCNC(=N)N)C(=O)N[C@H](Cc1ccccc1)C(=O)N[C@H](CCCCN)C(=O)N[C@H](CCCNC(=N)N)C(=O)N[C@H](CC(C)C)C(=O)N[C@H](CCCNC(=N)N)C(=O)N[C@H](CCCCN)C(=O)N[C@H](CCCNC(=N)N)C(=O)N[C@H](CC(C)C)C(=O)NCC(=O)O)[C@H](C)CC [R-CAP-18_31, Lkpllgqikqgikklkekiknrfkrlrkrlg] (H-[dL][dK][dP][dL][dL]G[dQ][dI][dK][dQ]G[dI][dK][dK][dL][dK][dE][dK][dI][dK][dN][dR][dF][dK][dR][dL][dR][dK][dR][dL]G-OH)	0.5	0.1	1.1			MIC ([5]; Strain ATCC 121110): 4 µg/mL
GLRKRLRKFRNKIKEKLKKIGQKIQGLLPKLAPRTDY [CAP-18]				< 0.125		IC50 (A549 cells): 0.87 µM; IC50 (HeLa cells [1]): 9.12 µM; mice final weight (median ± SD) [2]: 19.1 ± 0.55 grams; dermal responses and body weight loss [2]: no dermal responses, including erythema/oedema, nor body weight loss were observed; indicative signs of acute toxicity [2]: None of the 11 indicative signs of acute toxicity were observed; IC50 (human erythrocytes): 35.7 µM; MIC [6]: 4 µg/mL; MIC50 [4]: 0.5 µg/mL; MIC90 [4]: 4 µg/mL; MIC [7]: 8 µg/mL
Gu-INLKALAALAKKIL-NH2 (SMILES CC[C@H](C)[C@H](NC(=N)N)C(=O)N[C@@H](CC(N)=O)C(=O)N[C@@H](CC(C)C)C(=O)N[C@@H](CCCCN)C(=O)N[C@@H](C)C(=O)N[C@@H](CC(C)C)C(=O)N[C@@H](C)C(=O)N[C@@H](C)C(=O)N[C@@H](CC(C)C)C(=O)N[C@@H](C)C(=O)N[C@@H](CCCCN)C(=O)N[C@@H](CCCCN)C(=O)N[C@H](C(=O)N[C@@H](CC(C)C)C(N)=O)[C@@H](C)CC) [guanidylated mastoparan analog]					13	
H-FRNKIKEKLKKIGQKIQG-OH [CAP-18_18]	> 64	> 30	> 30	> 64		
H-FRNKIKEKLKKIGQKIQGLLPKL-OH [CAP-18_23]	> 64	> 24	> 12	> 32		
H-GLRKRLRKFRNKIKEKLKKIG-OH [CAP-18_21]	32	12	12	32		
H-IKEKLKKIGQKIQG-OH [CAP-18_14]	> 64		> 40	> 64		
H-IKEKLKKIGQKIQGLLPKL-OH [CAP-18_19]	> 64	> 29	> 29	> 64		
H-INLKALAALAKKIL-CH2CH2NH2					5	
H-inlkalaalakkil-NH2					10	
mastoparan					32	hemolysis (erythrocytes): 6.6%
